# Source: patent US7192746B2, “α-Isomaltosyltransferase, process for producing the same and use thereof” (Kabushiki Kaisha Hayashibara Seibutsu Kagaku Kenkyujo, priority 2000, dated 2007)
# Like-named read-outs stand apart in the source and are kept apart here.
# Experiments:
# [1] = test system: Bifidobacterium adolescentis JCM 1275 strain; assay: Assimilation test; type: cell-based; settings: PYF medium with 0.5% saccharide, 37° C., four days, anaerobic
# Inclusion action = type: physicochemical
# Experimental: To 100 g of the aqueous solution was added 2 g of methanol, 3 g of ethanol, or 4.6 g of acetic acid to be included by the cyclotetrasaccharide. Thereafter, each of the resulting solutions was filtered to remove non-inclusion products, and the filtrate was lyophilized. As a control, similar inclusion products were prepared by using “ISOELITE™ P”, a branched cyclodextrin commercialized by Maruha K.K., Tokyo, Japan, known to have inclusion ability.
# To measure the amount of the inclusion products in the resulting lyophilized powders, one gram of each powder was dissolved in five milliliters water and extracted after admixing with five milliliters of diethylether. The extraction was repeated, and the resulting extracts were pooled and quantified on gas chromatography.
# [2] = Reducing power on the Somogyi-Nelson's method; type: physicochemical
# [3] = test system: Clostridium perfringens JCM 3816 strain; type: cell-based; settings: PYF medium with 0.5% saccharide, 37° C., four days, anaerobic
# pH stability = type: physicochemical; settings: 4% (w/v), 100° C., 24 hours; for Purity: HPLC
# Experimental: Eight milliliters of each solution was placed in a glass test tube, followed by sealing the test tube and heating the solution at 100° C. for 24 hours. After cooling under atmospheric conditions, each solution was measured for coloration degree and determined for purity on HPLC. The coloration degree was evaluated based on the absorbance in a cell with a 1-cm light pass at a wavelength of 480 nm.
# [4] = test system: internal content of rat cecum; assay: Fermentation test; type: in vitro ADME
# Experimental: The internal content of rat cecum was collected by anesthetizing a Wister male rat with ether, allowing the rat to die, collecting the internal content under anaerobic conditions, and suspending the resultant with 4-fold volumes of a 0.1 M aqueous solution of sodium bicarbonate. Cyclotetrasaccharide was added in an amount of about 7% by weight to the weight of the internal contents of rat cecum, and the contents of cyclotetrasaccharide, which still remained just after and 12 hours after the addition of the internal contents, were quantified on gas chromatography.
# amylopsin [5] = biological target: T1, amylopsin (Homo sapiens, UniProt P04746)
# T1 sequence (P04746 16-511): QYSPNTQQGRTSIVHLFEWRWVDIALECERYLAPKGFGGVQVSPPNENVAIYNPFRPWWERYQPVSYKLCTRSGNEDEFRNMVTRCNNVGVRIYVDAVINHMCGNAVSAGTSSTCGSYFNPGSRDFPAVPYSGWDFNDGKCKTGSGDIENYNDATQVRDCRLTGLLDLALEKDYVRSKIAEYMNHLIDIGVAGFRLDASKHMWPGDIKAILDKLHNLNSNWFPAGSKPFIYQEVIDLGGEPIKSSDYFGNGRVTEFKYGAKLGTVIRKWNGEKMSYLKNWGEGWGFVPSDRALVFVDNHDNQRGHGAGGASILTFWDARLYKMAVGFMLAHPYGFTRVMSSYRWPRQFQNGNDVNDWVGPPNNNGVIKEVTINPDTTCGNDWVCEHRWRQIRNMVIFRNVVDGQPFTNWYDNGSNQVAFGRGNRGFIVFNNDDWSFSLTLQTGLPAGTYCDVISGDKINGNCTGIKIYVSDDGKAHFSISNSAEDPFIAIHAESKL
# [6] = Amino carbonyl reaction with glycine; type: physicochemical; settings: 10% (w/v) with 1% (w/v) glycine, pH 7.0, 100° C.
# Experimental: (§1) Four milliliter aliquots of the resulting solution were placed in glass test tubes, sealed, and heated at 100° C. for 30 to 90 min. After allowing to stand for cooling at ambient temperature, each of the resulting solutions was measured for coloration degree to examine their amino carbonyl reactivity. The coloration degree was evaluated based on the absorbance in a cell with 1-cm light pass at a wavelength of 480 nm.
# [7] = Amino carbonyl reaction with polypeptone; type: physicochemical; settings: 10% (w/v) with 5% (w/v) polypeptone, 120° C., minus control
# Experimental: as §1, with “120°” for “100°”, “solution” for “solutions”, “reactivity. In parallel, as a control, a solution with only polypeptone was provided and similarly treated as above.” for “reactivity.”, “level of the absorbance, measured” for “absorbance”, “nm, minus that of the control.” for “nm.”
# amylopsin [8] = biological target: T1, amylopsin; assay: Digestion test in vitro
# Digestion test in vitro = settings: Synthetic gastric juice
smiles,measurement,setting,value
"OCC1OC2OCC3O[C@H](O[C@H]4C(O)C(CO)OC(OCC5O[C@H](O[C@@H](C1O)C2O)C(O)C(O)[C@@H]5O)C4O)C(O)C(O)[C@@H]3O (stereo partly drawn) [Cyclotetrasaccharide, cyclo{→6)-α-D-glucopyranosyl-(1→3)-α-D-glucopyranosyl-(1→6)-α-D-glucopyranosyl-(1→3)-α-D-glucopyranosyl-(1→}]",Assimilability,[1],− (negative (−) when the post culture had a pH of 6.0 or higher)
same,"Inclusion ability relative to the branched cyclodextrin, by weight",Inclusion action; higher than ISOELITE P,about 2 folds
same,Inclusion amount,Inclusion action; inclusion product Acetic acid,67.74 mg/g lyophilized powder
same,Inclusion amount,Inclusion action; inclusion product Ethanol,17.26 mg/g lyophilized powder
same,Inclusion amount,Inclusion action; inclusion product Methanol,6.71 mg/g lyophilized powder
same,Reducing power,[2],below a detectable level
same,Assimilability,[3],− (negative (−) when the post culture had a pH of 6.0 or higher)
same,Coloration degree (A480 nm),pH stability; pH 2.0 (Acetate buffer),0.00
same,Purity,pH stability; pH 2.0 (Acetate buffer),93%
same,Coloration degree (A480 nm),pH stability; pH 3.0 (Acetate buffer),0.00
same,Purity,pH stability; pH 3.0 (Acetate buffer),100%
same,Coloration degree (A480 nm),pH stability; pH 4.0 (Acetate buffer),0.00
same,Purity,pH stability; pH 4.0 (Acetate buffer),100%
same,Coloration degree (A480 nm),pH stability; pH 5.0 (Acetate buffer),0.00
same,Purity,pH stability; pH 5.0 (Acetate buffer),100%
same,Coloration degree (A480 nm),pH stability; pH 6.0 (Tris-HCl buffer),0.00
same,Purity,pH stability; pH 6.0 (Tris-HCl buffer),100%
same,Coloration degree (A480 nm),pH stability; pH 7.0 (Tris-HCl buffer),0.00
same,Purity,pH stability; pH 7.0 (Tris-HCl buffer),100%
same,Coloration degree (A480 nm),pH stability; pH 8.0 (Tris-HCl buffer),0.00
same,Purity,pH stability; pH 8.0 (Tris-HCl buffer),100%
same,Coloration degree (A480 nm),pH stability; pH 9.0 (Ammonium buffer),0.00
same,Purity,pH stability; pH 9.0 (Ammonium buffer),100%
same,Coloration degree (A480 nm),pH stability; pH 10.0 (Ammonium buffer),0.00
same,Purity,pH stability; pH 10.0 (Ammonium buffer),100%
same,Cyclotetrasaccharide remained without being fermented,[4]; 12 hours,93%
same,Content of cyclotetrasaccharide remaining,[4]; 12 hours after the addition,63.0 mg per one gram of the internal contents of rat cecum
same,Content of cyclotetrasaccharide remaining,[4]; just after the addition,68.0 mg per one gram of the internal contents of rat cecum
same,Decomposition percentage by digestive enzyme,amylopsin [5],0.0%
same,Coloration degree (A480 nm),[6]; heating time 0 min,0.00
same,Coloration degree (A480 nm),[6]; heating time 30 min,0.00
same,Coloration degree (A480 nm),[6]; heating time 60 min,0.00
same,Coloration degree (A480 nm),[6]; heating time 90 min,0.00
same,Coloration degree (A480 nm),[7]; heating time 0 min,0.00
same,Coloration degree (A480 nm),[7]; heating time 30 min,0.00
same,Coloration degree (A480 nm),[7]; heating time 60 min,0.00
same,Coloration degree (A480 nm),[7]; heating time 90 min,0.00
"OC[C@@H](O)[C@@H](O[C@H]1O[C@H](CO)[C@@H](O)[C@H](O)[C@H]1O)[C@H](O)[C@@H](O)CO [Maltitol, maltitol]",Decomposition percentage by digestive enzyme,amylopsin [8],0.0%
same,Decomposition percentage by digestive enzyme,Digestion test in vitro,0.0%
